Key:
PPARγ = molecular target: T1, PPARγ (Homo sapiens, UniProt P37231); experiment: Transfection assay (luciferase reporter) in CV-1 cells, PPARγ; type: cell-based; conditions: 24 hours treatment
T1 construct: Full length PPARs plasmid DNA, reporter DNA confirming PPARs activity owing to its luciferase activity; expressed in transfected cells; host or cells: CV-1 cells
T1 sequence (P37231 1-505): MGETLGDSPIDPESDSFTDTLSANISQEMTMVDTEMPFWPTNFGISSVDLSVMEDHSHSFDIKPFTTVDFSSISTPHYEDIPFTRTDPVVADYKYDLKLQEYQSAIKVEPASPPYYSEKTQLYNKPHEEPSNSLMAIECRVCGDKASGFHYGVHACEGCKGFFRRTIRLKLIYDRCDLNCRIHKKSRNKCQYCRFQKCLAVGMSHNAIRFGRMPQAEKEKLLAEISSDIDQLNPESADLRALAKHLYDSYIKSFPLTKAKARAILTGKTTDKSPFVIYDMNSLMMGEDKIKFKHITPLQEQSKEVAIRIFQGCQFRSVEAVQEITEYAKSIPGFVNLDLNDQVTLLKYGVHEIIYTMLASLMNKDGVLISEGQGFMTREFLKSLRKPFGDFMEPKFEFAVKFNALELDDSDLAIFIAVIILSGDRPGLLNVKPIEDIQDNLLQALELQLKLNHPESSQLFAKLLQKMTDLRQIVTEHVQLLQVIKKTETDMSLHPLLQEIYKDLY
Description: The PPARδ activities of the R-form compound represented by formula 1 of the present invention and the S-form compound represented by formula 2 were measured by transfection assay. In addition, the selectivity to PPAR subtypes, PPARα and PPARγ, was examined. Cytotoxicity was tested by MTT assay and in vivo activity and toxicity was investigated by animal experiment using mice.
CV-1 cells were used in this assay. The cells were inoculated in a 96-well plate containing DMEM supplemented with 10% FBS, DBS (delipidated) and 1% penicillin/streptomycin and cultured in a 37 °C, 5% CO2 incubator. The experiment was performed according to the steps of inoculation, transfection, sample treatment and confirmation. Particularly, CV-1 cells were inoculated in a 96 well-plate (5000 cells/well), followed by transfection 24 hours later. Full length PPARs plasmid DNA, reporter DNA confirming PPARs activity owing to its luciferase activity, β-galactosidase DNA providing information on transfection efficiency, and transfection reagent were used for the transfection. The compounds of formula 1 and formula 2 were dissolved in dimethylsulfoxide (DMSO), which were treated to the cells via media at different concentrations. […] Luciferase activity and β-galactosidaseactivity were measured with Luminometer and a microplate reader. […] A graph was made with those values and EC50 was calculated.

CV-1 cells = experiment: MTT assay, cytotoxicity; type: cell-based; conditions: 24 hours, even at the concentration of 100,000 times the EC50 value
Description: MTT assay was performed to test cytotoxicity of the compounds of the present invention. MTT is a yellow substance soluble in water, but when it is introduced into a living cell, it turns into a purple insoluble crystal by dehydrogenase in mitochondria. Cytotoxicity can be confirmed by measuring OD550 after dissolving MTT in dimethylsulfoxide. The experiment was performed as follows.
CV-1 cells were inoculated in a 96-well plate (5000 cells/well). The cells were cultured in a 37[…] 5% CO2 incubator for 24 hours, and treated with the compounds of formula 1 and formula 2 at different concentrations. Then, the cells were cultured for 24 hours again, to which MTT reagent was added. After culturing for 15 minutes, the generated purple crystals were dissolved in dimethylsulfoxide. Optical density was measured with a microplate reader to confirm cytotoxicity.

ICR mice = experiment: Acute toxicity test; type: in vivo; conditions: oral, up to 2000 mg/kg, 14 days
Description: (§1) Acute toxicity and reproductive toxicity tests were performed using mice to evaluate the toxicity of the compound of the present invention. The compound of formula 1 was orally administered to ICR mice at 6 weeks at the dosage of 50 mg/kg, 300 mg/kg and 2000 mg/kg, followed by observation on toxicity for 14 days. […] The result of reproductive toxicity test using C57BL/6 mice was also consistent with the above, which is no toxicity caused by the compound of formula 1 was observed. After oral-administration of the compound to the pregnant female mice, weight gain and growth speed of fetus were investigated.

C57BL/6 mice [1] = experiment: Reproductive toxicity test; type: in vivo
Description: as §1

mice [2] = experiment: GTT (glucose tolerance test), diabetes improving effect; type: in vivo; conditions: oral pre-treatment 78 days
Description: GTT (glucose tolerance test) was performed to confirm the diabetes improving effect of the compound of the present invention. Glucose (1.5 g/Kg) was intra-abdominally administered to the mice pre-treated orally with samples for 78 days. Blood glucose was measured every hour. Fasting blood glucose was lower in the group treated with the compound of the present invention than in the group treated with vehicle or GW501516.

C57BL/6 mice [3] = experiment: Hyperlipidemia improving effect, blood HDL level; type: in vivo; conditions: 10 mg/kg/day oral, high fat feeds, 6 weeks, serum
Description: In vivo animal test using C57BL/6 (SLC Co.) mice at 6 weeks was performed to confirm the hyperlipidemia improving effect of the compound of the present invention. […] 6 weeks later, blood was taken from orbital veins. Serum was separated and blood HDL level was measured by biochemical method.

C57BL/6 mice [4] = experiment: Muscle endurance test in adults with exercise, treadmill; type: in vivo; conditions: 10 mg/kg oral, mice at 10 weeks, treadmill exercise 30 days
Description: Particularly, the compound of formula 1 was orally administered to C57BL/6 mice at 10 weeks at the concentration of 10 mg/kg, during which the mice were forced to exercise. The exercise was performed with treadmill for […] once a day for 30 days, precisely at the speed of 2 meter/min for the first 5 minutes, at 5 meter/min for 5 minutes, at 8 meter/min for 5 minutes and at 20 meter/min for the last 5 minutes. At the finish, muscle endurance and muscle function enhancing effect was tested by using treadmill. As a result, the time (1.5 fold) and distance (1.6 fold) of exercise were all increased in the group treated with the compound of the present invention, when compared with the control.

mice [5] = experiment: Morris water maze test, treatment in pregnancy and lactation; type: in vivo; conditions: 10 mg/kg oral to pregnant mice, control 24.2 sec
Description: An animal test was performed to investigate the therapeutic effect of the compound of the present invention on dementia and Parkinson's disease based on the memory improving effect thereof. To confirm the effect of the compound of the present invention in the period of brain development, the compound was orally administered to pregnant mice at the concentration of 10 mg/kg in the periods of pregnancy and lactation. Morris water maze test was performed to detect any changes of the brain functions of the treatment group and the control group.

Structure (SMILES): Cc1cc(S[C@H](Cc2ccccc2)c2sc(-c3ccc(C(F)(F)F)cc3)nc2C)ccc1OCC(=O)O (racemic) [formula 1]
- EC50 PPARγ (PPARγ): ia
- cytotoxicity (CV-1 cells): not to have cytotoxicity
- changes on weight and feed taking (ICR mice): no significant changes
- bone development and disease related matters (C57BL/6 mice [1]; mouse, in vivo, po): no changes
- weight gain and growth speed of fetus (C57BL/6 mice [1]; mouse, in vivo, po): no significant difference
- reproductive toxicity (C57BL/6 mice [1]; oral, pregnant female mice): no toxicity
- time of rapid blood glucose decrease (mice [2]; glucose 1.5 g/Kg intra-abdominal): 20 to 40 min
- fasting blood glucose (mice [2]; compared with vehicle or GW501516 group): lower
- HDL level increase compared with the control (C57BL/6 mice [3]): 44.6%
- distance of exercise compared with the control (C57BL/6 mice [4]): 1.6 fold
- time of exercise compared with the control (C57BL/6 mice [4]): 1.5 fold
- average time spent to find the platform (mice [5]): 6.8 s
